Experimental data from patent publication US20070202079A1, “Therapeutic compositions and methods useful in modulating protein tyrosine phosphatases” (priority 2006, published 2007).

What was measured:
Flag-PRL-1 = target: T1, Flag-PRL-1 (Homo sapiens, UniProt Q93096); assay: immunocomplex PTPase assay, NIH3T3 Flag-PRL-1 transfectants; assay type: cell-based, mouse; details: cells treated 5 min
T1 construct: expressed in transfected cells; host or cells: WM9 human melanoma cell line (pBabepuro, puromycin-selected)
T1 sequence (Q93096 whole entry): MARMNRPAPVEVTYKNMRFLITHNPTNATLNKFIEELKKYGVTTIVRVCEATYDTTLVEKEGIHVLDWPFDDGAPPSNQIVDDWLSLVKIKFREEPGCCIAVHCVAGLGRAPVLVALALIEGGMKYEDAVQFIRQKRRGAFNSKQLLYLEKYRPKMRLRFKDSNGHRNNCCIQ
Procedure: (§1) Immunocomplex PTPase assays were performed to assess the effects of sodium stibogluconate on intracellular PTPases. Cells were untreated or treated with sodium stibogluconate for 5 minutes, washed with fresh medium and then lysed in cold lysis buffer (50 mM Tris, pH 7.4; 150 mM NaCl; 1% NP40; 2 mM PMSF; 20 μg/ml of Aprotinin). The lysates were incubated with an anti-Flag antibody in immunoprecipitation assays. The immunocomplexes were collected with protein G sepharose beads (Pharmacia) and washed in cold lysis buffer for 4 times. […] C. for 18 hrs. 100 μL of malachite green solution (UBI) was added to each reaction prior to measurement of OD660 to quantify the amounts of free phosphate cleaved by the PTPases from the peptide substrate (Pathak et al., J. Immunol. 167, 3391 (2001)). The remaining 10% contents of individual samples were analyzed by SDS-PAGE/Western blotting to quantify the relative amounts of the phosphatase proteins. […]
(§2) The effects of sodium stibogluconate on intracellular PTPases were assessed using NIH3T3 or WM9 transfectants. […]

[1] = test system: tumor-infiltrating and spleen immune cells (F4/80+, CD4+, CD8+); assay: immunohistochemistry of Renca tumors and spleen; assay type: in vivo, Balb/c mice; details: mouse, in vivo
Procedure: Major internal organs and Renca tumors harvested from mice were fixed in 10% formalin or snap frozen in liquid nitrogen. H & E-stained tissue sections of the fixed samples were prepared and evaluated by microscopy as described previously (Yi, T., M. K. Pathak, D. J. Lindner, M. E. Ketterer, C. Farver, and E. C. Borden. 2002. Anticancer activity of sodium stibogluconate in synergy with IFNs. J Immunol 169:5978). Preparation of frozen tissue sections and immunohistochemistry were performed following established procedures (Joliat, M. J., P. A. Lang, B. L. Lyons, L. Burzenski, M. A. Lynes, T. Yi, J. P. Sundberg, and L. D. Shultz. 2002. Absence of CD5 dramatically reduces progression of pulmonary inflammatory lesions in SHP-1 protein-tyrosine phosphatase-deficient ‘viable motheaten’ mice. J Autoimmun 18:105). The antibodies used for immunohistochemistry were anti-CD4 (rat mAb, clone GK1.5, BD Biosciences, Franklin Lakes, N.J.), anti-CD8 (rat mAb, clone 53-6.7.5, BD Biosciences, Franklin Lakes, N.J.), anti-F4/80 (rat mAb, clone A3-1, Serotec, Oxford, UK) and anti-Asialo GM1 (rabbit polyclonal, Cedarlane, Hornby, Canada). […] Tissue sections of 2 mice/group were evaluated. The number of immune cells was semi-quantified based on the following scheme: […], 0-1 positive cells/40×field; +, 2-5 positive cells/40×field; ++, 6-10 positive cells/40×field, etc.

NB4 cells = assay: NB4 differentiation (NBT reduction, CD11b); assay type: cell-based, human; details: 6 days with drug, washed, 6 days without
Procedure: Differentiation of AML cell lines was assessed by their ability to produce superoxide as measured by reduction of NBT to formazan and by analysis of expression of CD11b surface marker by flow cytometry. For NBT reduction, each cell suspension was mixed with an equal volume of solution containing 1 mg/ml of NBT (Sigma) and 2.5 μg/ml of TPA for 30 minutes at 37° C. After incubation, cells containing the purple formazan deposits and cells devoid of NBT-reducing activity (white cells) in each sample were determined by counting 200 cells under microscope. Data is expressed as a percentage based on the following ratio: purple cells/purple+white cells. For analysis of cell surface antigens, cells were exposed to phycoerythrin (PE)-conjugated murine anti-human CD11b (DAKO Corp., Carpinteria, Calif.). Analysis of fluorescence was performed on a FACScan flow cytometer (Beckton Dickinson, Mountain View, Calif.).

Flag-PRL-2 = target: T2, Flag-PRL-2 (Homo sapiens, UniProt Q12974); assay: immunocomplex PTPase assay, NIH3T3 Flag-PRL-2 transfectants; assay type: cell-based, mouse
T2 construct: expressed in transfected cells; host or cells: NIH3T3 (pBabepuro, puromycin-selected)
T2 sequence (Q12974 whole entry): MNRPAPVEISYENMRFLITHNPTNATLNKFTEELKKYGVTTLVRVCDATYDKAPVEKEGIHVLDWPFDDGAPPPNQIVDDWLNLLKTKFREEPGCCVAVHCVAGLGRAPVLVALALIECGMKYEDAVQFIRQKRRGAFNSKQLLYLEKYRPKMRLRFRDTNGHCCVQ
Procedure: as §1, §2

Flag-PRL-3 = target: T3, Flag-PRL-3 (Homo sapiens, UniProt O75365); assay: immunocomplex PTPase assay, NIH3T3 Flag-PRL-3 transfectants; assay type: cell-based, mouse; details: cells treated 5 min
T3 construct: expressed in transfected cells; host or cells: NIH3T3 (pBabepuro, puromycin-selected)
T3 sequence (O75365 whole entry): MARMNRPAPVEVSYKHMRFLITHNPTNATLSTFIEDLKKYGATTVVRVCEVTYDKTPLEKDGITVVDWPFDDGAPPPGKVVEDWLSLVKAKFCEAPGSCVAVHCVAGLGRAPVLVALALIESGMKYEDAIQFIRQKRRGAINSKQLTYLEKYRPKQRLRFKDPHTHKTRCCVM
Procedure: as §1, §2

O.O.O.O.O.O.O.O.O.O=C([O-])[C@@H]1[O][Sb]2([O-])([O][Sb]34([OH])[O][C@H]([C@H](O)CO)[C@H]([O]3)[C@H](C(=O)[O-])[O]4)[O][C@H]([C@H](O)CO)[C@@H]1[O]2.[Na+].[Na+].[Na+] [sodium stibogluconate]
PTPase activity of immunocomplexes from treated Flag-PRL-1 transfectants (Flag-PRL-1): little PTPase activities
numbers of tumor-infiltrating T cells or NK cells [1]: little effect
reversal of NB4 differentiation after drug removal (NB4 cells): not reversed
time required for full removal of effect on intracellular PRL-2 (Flag-PRL-2; brief treatment): at least 24 hours
PTPase activity of immunocomplexes from treated Flag-PRL-2 transfectants (Flag-PRL-2; cells treated 5 min): lack of PTPase activity
PTPase activity of immunocomplexes from treated Flag-PRL-3 transfectants (Flag-PRL-3): lack of PTPase activity
